According to patent US20250275995A1, “NICOTINAMIDE RIBOSIDE DOSAGE REGIMEN FOR TREATING PARKINSON'S DISEASE” (VESTLANDETS INNOVASJONSSELSKAP AS (VIS), priority 2022, published 2025):
Where “and” joins values, the source holds several entries; their conditions need not be identical. Identical values can stand only once.

Tests used:
Format in all cases: in vivo, human
[1] = tested on: individuals with PD; experiment: NR-SAFE: vital signs, body metrics, ECG
Protocol: At screening for trial entry, candidates underwent physical and neurological examination. Enrolled participants were assessed by physical visits by a movement disorder specialist at baseline (visit 1, V1), day 7 (V4), day 14 (V5), day 21 (V6) and day 28 (V7). At baseline and day 28 participants underwent additional assessment with the Movement Disorder Society Unified Parkinson's disease Rating Scale section I-IV (MDS-UPDRS). At all physical visits an electrocardiogram (ECG), vital parameters (blood pressure, pulse, weight, height) and blood samples were obtained. Additional blood samples were taken on day 3 (V2) and day 5 (V3) to assess safety. The participants were interviewed by telephone consultation by a study nurse on day 3 and day 35 to screen for additional adverse events. Participants were instructed to take their anti-Parkinson drugs as they normally would and no changes were made to anti-Parkinson drug treatment during the trial. Adverse events (AEs) were recorded by the investigating physician. These were then classified by severity according to the Common Terminology Criteria for Adverse Events v5.0 (CTCAE)^13 as either mild (1), moderate (2), severe (3), life-threatening (4) or death (5). The AE relation to the study drug was scored as unrelated (1), unlikely (2), possible (3), probable (4) or definitely (5). 13 Freites-Martinez, A., Santana, N., Arias-Santiago, S. & Viera, A. Using the Common Terminology Criteria for Adverse Events (CTCAE—Version 5.0) to Evaluate the Severity of Adverse Events of Anticancer Therapies. Actas Dermosifiliogr (Engl Ed) 112, 90-92 (2021).

[2] = tested on: cerebral metabolic activity; experiment: NADPARK: FDG-PET, NR-related metabolic pattern (NRRP)
From the text: This novel NR-related metabolic pattern (NRRP) was characterized by multiple regional metabolic changes, including bilateral metabolic reductions in the caudate and putamen, extending into the adjacent globus pallidus, and in the thalamus (FIG. 1D-E). […] The NRRP expression can be derived from the FDG-PET data, as previously described (Cell Metab. 2022 Mar. 1; 34(3):396-407.e6). For example, a NR-related metabolic pattern (NRRP) can be identified by using ordinal trends/canonical variates analysis (OrT/CVA), a supervised form of principal component analysis (PCA) (Habeck et al., (2005), Neural Computation 17, 1602-1645). […] Likewise, the reliability of the voxel loadings (i.e., region weights) on the resulting network topography can be assessed using bootstrap resampling procedures (Habeck and Stern (2010), Cell Biochemistry and Biophysics 58, 53-67; Mure et al. (2011), Neuroimage 54, 1244-1253). The analysis can be restricted to the top PC patterns, accounting for greater than 75% of the subject×voxel variance in the longitudinal data. Expression values for these PCs can then be entered singly and in all possible linear combinations to identify significant monotonic trends in the individual subject data, i.e., consistent increases (or decreases) in pattern expression across the subjects with few if any violations (p<0.05; permutation test, 1000 iterations). The resulting coefficients are applied to the corresponding PC patterns to construct the NR-related topography. […] The analysis can be performed within a population or the individual subject's gray matter brain mask defined by the FDG-PET scans, e.g., as outlined in Table 1.

[3] = tested on: blood NAD^+ levels; experiment: NAD-brain pharmacokinetic study: whole blood NAD+ response
Protocol: The NAD-brain study performs a parallel assessment of NAD replenishment therapy pharmacokinetics in the blood and brain of healthy human subjects and subjects with Parkinson's disease (PD). A total of 10 healthy individuals (5 men and 5 women) and 10 individuals with PD (5 men and 5 women) undergo repeated blood sampling and 31P-MRS brain scans during two 20-day periods, each of which starts with 8 days of daily intake of NR 600 mg×2, or NMN 600 mg×2. The two 20-day period is 14 days apart to allow for washout of the previous compound. Blood is analyzed for NR and NAD-metabolites using HPLC-MS. By this approach, we measured the simultaneous change in NAD-metabolism overtime in blood and brain and establish blood and brain pharmacokinetics for NAD replenishment therapy in humans.
NR (Niagen®, Chromadex) at a dose of 600 mg×2 daily). NMN (Restorin®, from Seragon Pharmaceutics, or MIB-626 from Metro International Biotech) at a dose of 600 mg×2 daily.
• At screening, participants are assessed for eligibility, inclusion/exclusion criteria, medical history and concomitant medication is recorded, and informed consent signed. • The NAD-brain study performs a parallel assessment of NAD replenishment therapy pharmacokinetics in the blood and brain of healthy human subjects and subjects with Parkinson's disease (PD). Healthy individuals and individuals with PD undergo repeated blood sampling and 31P-MRS brain scans during two 20-day periods, each of which starts with 8 days of daily intake of NR 600 mg×2, or NMN 600 mg×2 (Table 10). • For each 20-day period the testing (i.e., scanning and blood draw) frequency is shown in Table 10, below. The two 20-day periods are 14 days apart to allow for washout of the previous compound.
Blood is analyzed for NR and NAD-metabolites using HPLC-MS metabolomics. Snap-frozen whole blood is used for the analysis of NAD^+. Blood is drawn from the participant in EDTA tube (VACUETTE® TUBE 2 ml K2E K2EDTA). The EDTA tube is gently inverted at least 10 times without shaking; 8×200 μl of blood from the EDTA tube is aliquoted into 8×0.5 ml micro tubes; these are closed, and all the micro tubes are immerse simultaneously in liquid nitrogen within 2 min from when blood has started flowing into the EDTA tube; then transferred frozen to −80° C. freezer for storage; stored at −80C in freezer-compatible cardboard or plastic storage boxes; and shipped on dry ice.
This is a pharmacokinetic (PK) study where 6 healthy individuals (3 male and 3 female): • 1) Received NR 1200 mg daily (600 mg×2) for 8 days, followed by an additional 11 days follow up, while undergoing serial blood and brain NAD-measurement. • 2) Received NMN 1200 mg daily (600 mg×2) for 8 days, followed by an additional 11 days follow up, while undergoing serial blood and brain NAD-measurement.
The individuals were mixed, so that in stage-1 three individuals received NR and three individuals received NMN, then in stage-2 they switched (Cross-over design). There were almost three weeks (20 days) of washout between the last dose of the first compound, and before the first dose of the second compounds.

[4] = V1 (baseline), NR 3000 mg daily group, ±sd
[5] = V7 (day 28), NR 3000 mg daily, ±sd

NC(=O)c1ccc[n+]([C@@H]2O[C@H](CO)[C@@H](O)[C@H]2O)c1 [NR, nicotinamide riboside]
Electrocardiography (ECG) ([1]; NR 3000 mg daily, 4 weeks): no changes of clinical significance
changes in systolic or diastolic blood pressure, pulse or weight between visit 1 and visit 7 ([1]; NR 3000 mg daily, 4 weeks): No significant changes in systolic or diastolic blood pressure, pulse or weight
patients who developed asymptomatic bradycardia ([1]; NR group, 3000 mg daily, 4 weeks): Two
heart rate of patients with asymptomatic bradycardia ([1]; NR group, 3000 mg daily, individual patients): 58 beats/min and 46 beats/min
Diastolic blood pressure [1, 4]: 74.7 ± 8.49 mmHg
Pulse [1, 4]: 64.2 ± 14.67 min⁻¹
Systolic blood pressure [1, 4]: 122.1 ± 12.53 mmHg
Weight [1, 4]: 79.38 ± 11.92 kg
Diastolic blood pressure [1, 5]: 76.2 ± 6.81 mmHg
Pulse [1, 5]: 61.1 ± 12.95 min⁻¹
Systolic blood pressure [1, 5]: 122.2 ± 7.49 mmHg
Weight [1, 5]: 79.38 ± 11.79 kg
Diastolic blood pressure, Δ ([1]; Δ=V7−V1, NR 3000 mg daily, ±sd): 1.5 ± 8.31 mmHg
Pulse, Δ ([1]; Δ=V7−V1, NR 3000 mg daily, ±sd): -3.1 ± 9.48 min⁻¹
Systolic blood pressure, Δ ([1]; Δ=V7−V1, NR 3000 mg daily, ±sd): 0.1 ± 8.29 mmHg
Weight, Δ ([1]; Δ=V7−V1, NR 3000 mg daily, ±sd): 0 ± 0.58 kg
effect size (ES) of NRRP expression increase vs placebo ([2]; 1000 mg NR): 0.883
increase in NRRP expression (mean±SD) ([2]; 1000 mg NR, NR treatment group): 0.68±0.86
effect of NRRP expression change on PD cerebral metabolic pattern ([2]; NR group, 1000 mg daily, FDG-PET): partial normalization of the striatal and thalamic hypermetabolism
blood NAD^+ levels ([3]; 1200 mg daily (600 mg×2) for 8 days, 6 healthy individuals): increased in all individuals
blood NAD^+ response, NR compared with NMN ([3]; 1200 mg daily (600 mg×2) for 8 days, cross-over): stronger than the NMN response
day of maximal NAD levels in the blood ([3]; 1200 mg daily for 8 days, last dose morning of day 8): 9 days
time to reach a steady heightened state of NAD-metabolism in blood and brain ([3]; NR supplementation): more than 8 days
plateau of blood NAD^+ levels ([3]; after 8 days of precursor intake, 1200 mg daily): did not plateau after 8 days
